Results taken from patent US20160136108A1, “HYDROXYTYROSOL COMPOSITIONS FOR TREATMENT OF CARTILAGE INJURIES IN JOINTS” (DSM IP ASSETS B.V., priority 2007, published 2016).

Tests used:
Format in all cases: cell-based
[1] = tested on: human SOX-5; experiment: Anabolic gene expression by quantitative real-time PCR in normal human primary chondrocytes: SOX-5; settings: normal human primary chondrocytes (HNAC-kn); 4 hours
Protocol: (§1) […] These primary chondrocytes were passaged in vitro not more than 4 times, before being used for experiments. Cells were cultured in chondrocyte differentiation medium (Cambrex, #CC-3225) without or with substances for 4 hours. Total RNA was extracted from cultured cells and reverse-transcribed as described by Richard et al. Mol. Nutr. Food Res. 49, 431-442, 2005. Expression levels of distinct genes were determined by quantitative real-time PCR as detailed in Richard et al. Mol. Nutr. Food Res. 49, 431-442, 2005.

[2] = tested on: human SOX-6; experiment: Anabolic gene expression by quantitative real-time PCR in normal human primary chondrocytes: SOX-6; settings: normal human primary chondrocytes (HNAC-kn); 4 hours
Protocol: as §1

[3] = tested on: human aggrecan; experiment: Anabolic gene expression by quantitative real-time PCR in normal human primary chondrocytes: aggrecan
Protocol: as §1

[4] = tested on: human COL2A1; experiment: Anabolic gene expression by quantitative real-time PCR in normal human primary chondrocytes: COL2A1
Protocol: as §1

[5] = tested on: Human IL-R antagonist; experiment: Anti-catabolic gene expression by quantitative real-time PCR in normal human primary chondrocytes: IL-R antagonist; settings: normal human primary chondrocytes (HNAC-kn); 4 hours
Protocol: as §1

[6] = 12.5 microM OH-Tyrosol, normal human primary chondrocytes (HNAC-kn), 4 hours
[7] = in words, normal human primary chondrocytes

OCCc1ccc(O)c(O)c1 [OH-Tyrosol, 4-(2-hydroxylethyl)-1,2-benzenediol]
level of gene expression, human SOX-5 [1]: 130 % of control-treated cells | level of gene expression, human SOX-6 [2]: 127 % of control-treated cells | level of gene expression, human aggrecan [3, 6]: 125 % of control-treated cells | effect of compounds on gene expression, human aggrecan [3, 7]: substantially increased | level of gene expression, human COL2A1 [4, 6]: 247 % of control-treated cells | effect of compounds on gene expression, human COL2A1 (collagen II) [4, 7]: substantially increased | level of gene expression, Human IL-R antagonist [5]: 113 % of control-treated cells
